Laboratory results from ChEMBL document CHEMBL1201862, “PubChem BioAssay data set” (2004).
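Briefly, cells in 96-well plates were exposed to five compound concentrations for 48 h, and endpoints were estimated by linear interpolation. GI50: concentration for 50% inhibition of growth.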 Active and inactive are the calls of the source. No stated cut-off is given here; in the data, active = GI50 up to about 1.1 µM and inactive = higher.

Key:
Test in all cases: growth of human tumour cells (NCI), 48 h
SNB-19 = tested on: SNB-19
HL-60 = tested on: HL-60
SW-620 = tested on: SW-620
DU-145 = tested on: DU-145
Hs-578T = tested on: Hs-578T
BT-549 = tested on: BT-549
A498 = tested on: A498
MDA-N = tested on: MDA-N
NCI-H460 = tested on: NCI-H460
ACHN = tested on: ACHN
HCC 2998 = tested on: HCC 2998
CAKI-1 = tested on: CAKI-1
HCT-116 = tested on: HCT-116
HOP-62 = tested on: HOP-62
SF-539 = tested on: SF-539
UACC-257 = tested on: UACC-257
786-0 = tested on: 786-0
Malme-3M = tested on: Malme-3M
TK-10 = tested on: TK-10
RXF 393 = tested on: RXF 393

SMILES | GI50 (SNB-19) | GI50 (HL-60) | GI50 (SW-620) | GI50 (DU-145) | GI50 (Hs-578T) | GI50 (BT-549) | GI50 (A498) | GI50 (MDA-N) | GI50 (NCI-H460) | GI50 (ACHN) | GI50 (HCC 2998) | GI50 (CAKI-1) | GI50 (HCT-116) | GI50 (HOP-62) | GI50 (SF-539) | GI50 (UACC-257) | GI50 (786-0) | GI50 (Malme-3M) | GI50 (TK-10) | GI50 (RXF 393)
O=c1oc2ccc3ccccc3c2cc1-c1nnc(-c2ccc([N+](=O)[O-])cc2)[nH]1 | 32.8 µM (inactive) | > 100 µM (inactive) | > 100 µM (inactive) | 87.3 µM (inactive) | 11.5 µM (inactive) | 21.3 µM (inactive) | 53.6 µM (inactive) | > 100 µM (inactive) | > 100 µM (inactive) | 42.2 µM (inactive) | > 100 µM (inactive) | > 100 µM (inactive) | > 100 µM (inactive) | 17.2 µM (inactive) | 18.7 µM (inactive) | > 100 µM (inactive) | 41.1 µM (inactive) | 91.2 µM (inactive) | – | –
N#Cc1cc(N(CCCl)CCCl)c([N+](=O)[O-])cc1[N+](=O)[O-] | > 100 µM (inactive) | 22.3 µM (inactive) | > 100 µM (inactive) | 32.4 µM (inactive) | > 100 µM (inactive) | > 100 µM (inactive) | > 100 µM (inactive) | > 100 µM (inactive) | 18.6 µM (inactive) | 18.1 µM (inactive) | – | 11.1 µM (inactive) | > 100 µM (inactive) | > 100 µM (inactive) | > 100 µM (inactive) | > 100 µM (inactive) | 81.1 µM (inactive) | 60.8 µM (inactive) | > 100 µM (inactive) | –
Oc1ccc2oc3c(O)c4ccccc4cc3c2c1 | 83.4 µM (inactive) | 2.28 µM (inactive) | 0.69 µM (active) | 3.27 µM (inactive) | 23.2 µM (inactive) | 5.61 µM (inactive) | 2.45 µM (inactive) | 0.927 µM (active) | 23.5 µM (inactive) | 2.12 µM (inactive) | – | 5.32 µM (inactive) | 0.296 µM (active) | 35.2 µM (inactive) | 1.75 µM (inactive) | 52 µM (inactive) | 5.93 µM (inactive) | 11.4 µM (inactive) | 4.75 µM (inactive) | 2.44 µM (inactive)
COc1ccc2c(c1)CCc1c-2[nH]c2ccc(OC)cc12 | > 100 µM (inactive) | – | > 100 µM (inactive) | > 100 µM (inactive) | > 100 µM (inactive) | > 100 µM (inactive) | > 100 µM (inactive) | > 100 µM (inactive) | > 100 µM (inactive) | > 100 µM (inactive) | > 100 µM (inactive) | > 100 µM (inactive) | > 100 µM (inactive) | > 100 µM (inactive) | – | > 100 µM (inactive) | > 100 µM (inactive) | 45.8 µM (inactive) | > 100 µM (inactive) | –
N/C(=N\c1ccc(Cl)cc1)NS(=O)(=O)c1ccc(-c2ccccn2)s1 | 16.3 µM (inactive) | – | 19.4 µM (inactive) | 17 µM (inactive) | 24.8 µM (inactive) | 17.3 µM (inactive) | 12.5 µM (inactive) | 6.89 µM (inactive) | 17.7 µM (inactive) | 16.4 µM (inactive) | – | 2.07 µM (inactive) | 16.9 µM (inactive) | 18.1 µM (inactive) | 14.9 µM (inactive) | 7.91 µM (inactive) | 15.2 µM (inactive) | 12.4 µM (inactive) | 17.3 µM (inactive) | 16.8 µM (inactive)
C[C@@H](C(=O)O)N1C(c2ccco2)=C(/C(C=O)=C\c2ccco2)C(=O)/C1=C\c1ccco1 | > 100 µM (inactive) | > 100 µM (inactive) | > 100 µM (inactive) | > 100 µM (inactive) | > 100 µM (inactive) | > 100 µM (inactive) | > 100 µM (inactive) | > 100 µM (inactive) | – | > 100 µM (inactive) | – | > 100 µM (inactive) | > 100 µM (inactive) | > 100 µM (inactive) | > 100 µM (inactive) | > 100 µM (inactive) | > 100 µM (inactive) | > 100 µM (inactive) | > 100 µM (inactive) | > 100 µM (inactive)
CCCCSC1=N/C(=C\c2ccc(N(C)C)cc2)C(=O)N1 | 31.7 µM (inactive) | 82.8 µM (inactive) | 48.2 µM (inactive) | 60.1 µM (inactive) | 25.2 µM (inactive) | > 100 µM (inactive) | 13.9 µM (inactive) | 33.6 µM (inactive) | 20.8 µM (inactive) | 29.8 µM (inactive) | – | 35.6 µM (inactive) | 25 µM (inactive) | 46.2 µM (inactive) | 24.5 µM (inactive) | 20.4 µM (inactive) | 17.9 µM (inactive) | 38.4 µM (inactive) | > 100 µM (inactive) | 30 µM (inactive)
COc1ccc(C2C3=C(N=C4SC(C(C)=O)=C(C)N42)c2ccccc2CC3)cc1 (stereo not given) | > 100 µM (inactive) | 10.1 µM (inactive) | > 100 µM (inactive) | > 100 µM (inactive) | 69 µM (inactive) | 81.8 µM (inactive) | > 100 µM (inactive) | 21.1 µM (inactive) | – | > 100 µM (inactive) | 42.4 µM (inactive) | – | 15 µM (inactive) | > 100 µM (inactive) | > 100 µM (inactive) | 73.3 µM (inactive) | > 100 µM (inactive) | – | – | 23.7 µM (inactive)
O=C(NN=C(c1ccccc1)c1ccccc1)/C(O)=C/C(=O)c1ccc(Cl)cc1 | 38.3 µM (inactive) | – | – | 73.1 µM (inactive) | 27.2 µM (inactive) | 38.1 µM (inactive) | 16.5 µM (inactive) | 40.5 µM (inactive) | 5.5 µM (inactive) | 37.4 µM (inactive) | 39.5 µM (inactive) | > 100 µM (inactive) | 31.5 µM (inactive) | 45.2 µM (inactive) | 26.4 µM (inactive) | 37.3 µM (inactive) | 37.3 µM (inactive) | 20.7 µM (inactive) | 48.5 µM (inactive) | 35.2 µM (inactive)
CC/C(=N\NC(=O)c1cccnc1)c1ccc2c(c1)OCCO2 | > 100 µM (inactive) | > 100 µM (inactive) | > 100 µM (inactive) | > 100 µM (inactive) | 12.4 µM (inactive) | > 100 µM (inactive) | > 100 µM (inactive) | 30.9 µM (inactive) | > 100 µM (inactive) | > 100 µM (inactive) | – | > 100 µM (inactive) | > 100 µM (inactive) | > 100 µM (inactive) | > 100 µM (inactive) | – | > 100 µM (inactive) | 28.4 µM (inactive) | > 100 µM (inactive) | > 100 µM (inactive)
Cc1ccc2c(C(=O)c3c(C)n(CCN4CCOCC4)c4ccccc34)cccc2c1 | 33.9 µM (inactive) | 2.57 µM (inactive) | 0.685 µM (active) | 27.5 µM (inactive) | 4.14 µM (inactive) | 14 µM (inactive) | 28.6 µM (inactive) | 4.06 µM (inactive) | 21.1 µM (inactive) | 28.6 µM (inactive) | – | 25.1 µM (inactive) | 7.18 µM (inactive) | 27.3 µM (inactive) | 0.156 µM (active) | 16.3 µM (inactive) | 13.8 µM (inactive) | 5.98 µM (inactive) | 23.7 µM (inactive) | 13.9 µM (inactive)
CC(C)(C)C(=O)C(C(c1ccccc1)N1CCOCC1)N1CCOCC1 (stereo not given) | > 100 µM (inactive) | – | > 100 µM (inactive) | > 100 µM (inactive) | > 100 µM (inactive) | > 100 µM (inactive) | > 100 µM (inactive) | > 100 µM (inactive) | > 100 µM (inactive) | > 100 µM (inactive) | > 100 µM (inactive) | > 100 µM (inactive) | > 100 µM (inactive) | > 100 µM (inactive) | – | > 100 µM (inactive) | > 100 µM (inactive) | > 100 µM (inactive) | > 100 µM (inactive) | > 100 µM (inactive)
COC(=O)c1cccc2c1Oc1ccccc1S2 | 41.2 µM (inactive) | 8.18 µM (inactive) | 59.6 µM (inactive) | > 100 µM (inactive) | 40.6 µM (inactive) | 60.3 µM (inactive) | 85.3 µM (inactive) | > 100 µM (inactive) | 44.3 µM (inactive) | 61.2 µM (inactive) | – | 14.5 µM (inactive) | 47.1 µM (inactive) | > 100 µM (inactive) | 55.1 µM (inactive) | > 100 µM (inactive) | 42.9 µM (inactive) | – | > 100 µM (inactive) | 33 µM (inactive)
Cn1c(=S)c2nc(SCCN3C(=O)c4ccccc4C3=O)[nH]c2n(C)c1=O | > 100 µM (inactive) | > 100 µM (inactive) | > 100 µM (inactive) | > 100 µM (inactive) | > 100 µM (inactive) | > 100 µM (inactive) | > 100 µM (inactive) | > 100 µM (inactive) | 92.7 µM (inactive) | > 100 µM (inactive) | – | > 100 µM (inactive) | > 100 µM (inactive) | > 100 µM (inactive) | > 100 µM (inactive) | > 100 µM (inactive) | > 100 µM (inactive) | > 100 µM (inactive) | > 100 µM (inactive) | > 100 µM (inactive)
O=C(NN1C(=O)/C(=C/c2ccc(Cl)cc2)N=C1c1ccccc1)c1c(Cl)c(Cl)c(Cl)c(Cl)c1-c1nc2ccccc2[nH]1 | 22.1 µM (inactive) | 18.9 µM (inactive) | 20.6 µM (inactive) | 17.7 µM (inactive) | 13.5 µM (inactive) | 13.4 µM (inactive) | 12.9 µM (inactive) | 3.84 µM (inactive) | < 0.01 µM (active) | 22.1 µM (inactive) | 8.09 µM (inactive) | 18.9 µM (inactive) | 15.6 µM (inactive) | < 0.01 µM (active) | 23.8 µM (inactive) | – | 18.5 µM (inactive) | 20.8 µM (inactive) | – | –
